SMILES strings stand for the structures.

The subject of one assay is horse plasma. The assay is described as follows: Thrombelastography of horse plasma, coagulation study (no tPA). In kind it is biochemical. Further details: increase in TTG vs control / decrease in MRTG vs control / decrease in TTG vs control / decrease in MRTG vs control sample / decrease in TTG vs control sample / increase in MRTG vs control sample / increase in TTG vs control sample: concentration or dose not given beside the values. Conditions: for MRTG / TMRTG / TTG / MA / R / α: PHA 10 mM, CORM-2 100 μM. The method, then:
Blood was collected directly into plastic tubes containing 0.105 M sodium citrate (9:1, v/v) from the jugular vein of ten clinically normal grade and American Quarter Horse mares between 400 and 600 kg. Three additional horses to be subsequently described with acute gastrointestinal disease had blood samples similarly collected. The mares were group-housed in corrals. Plasma was obtained by centrifugation of citrated whole blood at 3000×g for 15 minutes and immediately frozen at −80° C. Plasma was subsequently shipped on dry ice and stored at −80° C. until thrombelastographic analysis.
The final volume for all subsequently described plasma sample mixtures was 359.6 μl. Sample composition for this series of experiments consisted of 326 μl of plasma; 10 μl of tissue factor reagent (0.1% final concentration in dH2O; Diagnostica Stago S.A.S., Asnieres sur Seine, France); 3.6 μl of dH2O, or 3.6 μl dH2O containing the heme-binding reductant phenylhydroxylamine (PHA, 10 mM final concentration, Sigma-Aldrich, Saint Louis, Mo., USA), or 3.6 μl of dimethyl sulfoxide with CORM-2 (100 μM final concentration; Sigma-Aldrich, Saint Louis, Mo., USA); and 20 μl of 200 mM CaCl2. As previously described in human plasma (McMichael et al., 2011, Blood Coagul Fibrinolysis, 22: 424-430), this diagnostic panel is designed to determine hemostatic kinetic changes following of formation of carboxyhemefibrinogen (Fe^+2 state) after exposure to CO released from CORM-2 and to determine the effects of formation of methemefibrinogen (Fe^+3 state) after exposure to PHA. The relative change from baseline kinetics caused by exposure to CORM-2 and PHA allow determination of the balance between oxy/carboxy/methemefibrinogen concentrations in human plasma (McMichael et al., 2011, Blood Coagul Fibrinolysis, 22: 424-430).
Plasma sample mixtures were placed in a disposable cup in a computer-controlled Thrombelastograph® hemostasis system (Model 5000, Haemoscope Corp., Niles, Ill., USA), with addition of CaCl2 as the last step to initiate clotting. Data were collected at 37° C. for 15 min in the first series of experiments involving coagulation alone, whereas in the experiments involving fibrinolysis data were collected until clot lysis time was observed. Elastic modulus-based parameters previously described were determined (Nielsen et al., 2009, Blood Coagul Fibrinolysis, 20: 377-380; Nielsen et al., 2009, Blood Coagul Fibrinolysis, 20: 448-455). The nomenclature used to describe these phenomena is as follows:
Time to maximum rate of thrombus generation (TMRTG): This is the time interval (min) observed prior to maximum speed of clot growth.
Maximum rate of thrombus generation (MRTG): This is the maximum velocity of clot growth observed (dynes/cm^2/sec).
Total Thrombus Generation (TTG): This is the total area under the velocity curve during clot growth (dynes/cm^2), representing the amount of clot strength generated during clot growth.
Thrombelastographic data are presented as mean±SD or as individual animal parameter values as appropriate. The effects of addition of CORM-2 and PHA on coagulation and fibrinolytic kinetic parameters were analyzed with one way repeated measures analysis of variance, utilizing Holm-Sidak post hoc test (SigmaStat 3.1, Systat Software, Inc., San Jose, Calif., USA) as appropriate. A P value of <0.05 was considered significant.

Assay [1] deals with Patient plasma; pooled normal plasma. Briefly: Thrombelastography of Heartmate II VAD patient plasma and pooled normal plasma. In kind it is biochemical, human. Conditions: for change in clot strength (TTG) compared to normal plasma: VAD patient plasma, 100 μM CORM-2 or 30 mM PHA. The method, then: Shortly after induction of anesthesia and invasive monitoring placement, whole blood was collected from the patient's radial arterial catheter and immediately anticoagulated with sodium citrate (9 parts blood:1 part 0.105M sodium citrate). The blood was immediately centrifuged at 3000×g at room temperature, with plasma aliquoted and stored at −80° C. prior to thrombelastographic analyses subsequently described. Operation proceeded, with VAD replacement followed by discharge from the hospital three weeks later.
Patient plasma was subjected to thrombelastographic analysis for 30 min at 37° C. as previously described (Nielsen et al., 2009, Blood Coagul Fibrinolysis, 20: 377-380; Nielsen et al., 2011, Blood Coagul Fibrinolysis, 22: 657-661). Also, for qualitative/semi-quantitative comparison, four replicate samples of citrated, pooled normal plasma (George King Bio-Medical, Overland Park, Kans., USA) were subjected to identical thrombelastographic analyses. In brief, the final volume for all subsequently described plasma sample mixtures was 359.6 Sample composition consisted of 326 μl of plasma; 10 μl of tissue factor reagent (0.1% final concentration in dH2O; Diagnostica Stago S.A.S., Asnieres sur Seine, France), 3.6 μl of dH2O or dH2O containing the organic reductant phenylhydroxylamine (PHA, 30 mM final concentration, Sigma-Aldrich, Saint Louis, Mo., USA), or 3.6 μl of CORM-2 (100 μM final concentration; Sigma-Aldrich) and 20 μl of 200 mM CaCl2. The addition of CORM-2 determines if there are heme groups unbound by CO in plasma by increasing coagulation kinetics (Nielsen et al., 2011, Blood Coagul Fibrinolysis, 22: 657-661). PHA at this concentration rapidly converts heme-attached Fe^+2 to Fe^+3, the met-state, displacing CO and decreasing coagulation (Nielsen et al., 2011, Blood Coagul Fibrinolysis, 22: 657-661). […] Thrombelastographic variables previously described (Nielsen et al., 2009, Blood Coagul Fibrinolysis, 20: 377-380; Nielsen et al., 2011, Blood Coagul Fibrinolysis, 22: 657-661) were determined, and the results are depicted in FIG. 7 and FIG. 8.

[2] abbreviates: horse with lethal disease, no tPA.
The mark [3] stands for this setting: horse with lethal enteritis, no tPA.
The mark [4] stands for this setting: horse with mild disease, no tPA.
[5] abbreviates: horse with mild enteritis, no tPA.
[6] abbreviates: horse with moderate disease, no tPA.
[7] abbreviates: horse with moderate enteritis, no tPA.

In the assay on horse plasma (setting [2]), `[C-]#[O+].[C-]#[O+].[C-]#[O+].[C-]#[O+].[C-]#[O+].[C-]#[O+].[Cl][Ru][Cl].[Cl][Ru][Cl]` [CORM-2, tricarbonyldichlororuthenium (II) dimer] showed an MRTG of 5.0 dynes/cm^2/sec, a TMRTG of 3.7 min and a TTG of 126 dynes/cm^2. Further, in the assay on horse plasma (setting [3]), the “increase in MRTG vs control sample” value was 67% and the “increase in TTG vs control sample” value was found to be 97%. Moreover, in the assay on horse plasma (setting [4]), the MRTG stood at 10.2 dynes/cm^2/sec, the TMRTG came to 2.9 min and the TTG came out at 308 dynes/cm^2. Further, in the assay on horse plasma (setting [5]), the “increase in MRTG vs control sample” value came out at 16% and the “increase in TTG vs control sample” value was determined as 25%. In the assay with horse plasma (setting [6]), this compound showed an MRTG of 9.1 dynes/cm^2/sec, a TMRTG of 2.4 min and a TTG of 238 dynes/cm^2. Also, in the assay on horse plasma (setting [7]), the “increase in MRTG vs control sample” value stood at 28% and the “increase in TTG vs control sample” value is listed as 47%. Further, the “increase in TTG vs control” value in the assay on horse plasma (normal horses, no tPA) was 9%. In the assay on horse plasma (normal horses), this compound had an MA of 40.4 ± 3.4, an MRTG of 13.0 ± 2.9 dynes/cm^2/sec, an R of 2.0 ± 0.4 and a TMRTG of 2.8 ± 0.5 min. In the assay on horse plasma (normal horses), this compound returned a TTG of 342 ± 48 dynes/cm^2 and a α of 80.2 ± 2.1. In assay [1], the “change in clot strength (TTG) compared to normal plasma” value is “markedly decreased response”. The “change in clot strength (TTG)” value in assay [1] (normal pooled plasma, 100 μM CORM-2) was “typical increase”.
In the case of `ONc1ccccc1` [PHA, phenylhydroxylamine], in the assay on horse plasma (setting [2]), the MRTG is 0.1 dynes/cm^2/sec, the TMRTG came to 8.2 min and the TTG worked out at 2 dynes/cm^2. The effect on coagulation entry in the assay on horse plasma (setting [3]) is recorded as “essentially extinguished coagulation”. Further, in the assay with horse plasma (setting [4]), the MRTG amounted to 4.8 dynes/cm^2/sec, the TMRTG is 3.9 min and the TTG is 177 dynes/cm^2. Further, in the assay with horse plasma (setting [5]), the “decrease in MRTG vs control sample” value amounted to 45% and the “decrease in TTG vs control sample” value was determined as 28%. Further, in the assay with horse plasma (setting [6]), the MRTG is 3.9 dynes/cm^2/sec, the TMRTG is given as 3.5 min and the TTG is given as 126 dynes/cm^2. Further, in the assay on horse plasma (setting [7]), the “decrease in MRTG vs control sample” value came to 45% and the “decrease in TTG vs control sample” value is on record as 22%. In addition, in the assay on horse plasma (normal horses, no tPA), the “decrease in MRTG vs control” value came to 54% and the “decrease in TTG vs control” value came to 47%. Moreover, in the assay on horse plasma (normal horses), the MA came out at 24.6 ± 2.7, the MRTG was 6.2 ± 1.7 dynes/cm^2/sec, the R came to 2.4 ± 0.4 and the TMRTG came out at 3.4 ± 0.6 min. Moreover, in the assay on horse plasma (normal horses), the TTG amounted to 166 ± 23 dynes/cm^2 and the α came out at 71.7 ± 3.6. For the same compound, the “change in clot strength (TTG) compared to normal plasma” value in assay [1] is listed as “greater decrease”.

The values above are taken from patent US20140242707A1, “Compositions and Methods for Diagnosing Hypercoagulability and Hypocoagulability” (Philadelphia Health & Education Corporation d/b/a Drexel …, priority 2011, published 2014).
